Measurements from patent US9623016B2, “Antibacterial compounds” (Emergent Virology LLC, priority 2013, dated 2017).
Where two headings read alike, the source gives them in different places.

Experiments:
[1] = tested on: S. aureus (USA300); assay: Minimum Inhibitory Concentration (MIC); type: cell-based
Protocol: (§1) The MIC assay is a technique used to determine the lowest concentration of a particular antibiotic needed to inhibit visible growth of bacteria. In this method, two fold serial dilutions of the compound were prepared in broth media. An inoculum of overnight bacterial cultures will be prepared in the same broth medium. The serial dilution tubes will be inoculated with 0.025 ml of undiluted over-night culture (1:100), a 1×10-2 dilution (1:10,000), or a 1×10-4 dilution (1:1,000,000) of bacterial suspension. Results were recorded after 24 hour incubation at 35° C. without shaking by measuring OD600. The MIC is determined by the lowest concentration of compound where no growth is visible.

[2] = tested on: B. subtilis
Protocol: as §1

[3] = tested on: E. coli (K12)
Protocol: as §1

[4] = tested on: P. aeruginosa 4961
Protocol: as §1

[5] = tested on: S. aureus (8324-5)
Protocol: as §1

[6] = tested on: S. aureus (Col)
Protocol: as §1

[7] = tested on: B. subtilis; assay: Minimum Bactericidal Concentration (MBC); type: cell-based
Protocol: (§2) MBC is the lowest concentration of compound required to kill an organism. […] In the case of small colony variants, growth might not occur earlier than 48 hours.

[8] = tested on: P. aeruginosa 4858; assay: Minimum Bactericidal Concentration (MBC); type: cell-based
Protocol: as §2

[9] = tested on: S. aureus (8324-5); assay: Minimum Bactericidal Concentration (MBC); type: cell-based
Protocol: as §2

[10] = tested on: S. aureus (Col); assay: Minimum Bactericidal Concentration (MBC); type: cell-based
Protocol: as §2

[11] = tested on: S. aureus (USA300); assay: Minimum Bactericidal Concentration (MBC); type: cell-based
Protocol: as §2

[12] = tested on: S. aureus; assay: Minimum Bactericidal Concentration (MBC); type: cell-based; conditions: UV-4B
Protocol: as §2

[13] = tested on: S. aureus USA 300 alpha toxin; conditions: 3 h incubation; hemolysis of 2% rabbit RBC, OD416 nm; FIG. 4
Protocol: • 1. Grow USA300 in MHA plate O/N • 2. Swab bacteria culture from plate and re-suspend in 2 ml PBS • 3. Spin and discard sup. • 4. Wash with 2 ml of PBS. • 5. Re-suspend in 2 ml LB. • 6. […] Add inoculum (make two different inoculum size: 1 and 1:10 in LB). […] Incubate at 370 C for 3 h • 11. Read growth OD600 (T3). • 12. Perform alpha hemolytic assay by using 2% rabbit RBC. Read OD416 nm (T3 hemolysis)

SMILES: COCCCCCCCCCN1C[C@H](O)[C@@H](O)[C@H](O)[C@H]1CO.Cl [UV-4B, hydrochloric acid salt of N-(9-Methoxynonyl)deoxynojirimycin]
- MIC ([1]; Table 3, two independent tests): 2.5 mg/mL
- MIC ([1]; Table 4): 0.0625 mg/mL
- growth (OD600) ([1]; Table 4, 0.02 mg/ml): + (+ OD600 <0.05)
- growth (OD600) ([1]; Table 4, 0.04 mg/ml): + (+ OD600 <0.05)
- growth (OD600) ([1]; Table 4, 0.08 mg/ml): + (+ OD600 <0.05)
- growth (OD600) ([1]; Table 4, 0.16 mg/ml): + (+ OD600 <0.05)
- growth (OD600) ([1]; Table 4, 0.31 mg/ml): + (+ OD600 <0.05)
- growth (OD600) ([1]; Table 4, 0.63 mg/ml): − (− OD600 >0.05)
- growth (OD600) ([1]; Table 4, 2.50 mg/ml): − (− OD600 >0.05)
- growth (OD600) ([1]; Table 4, 5 mg/ml): − (− OD600 >0.05)
- growth (OD600) ([1]; Table 4, 10 mg/ml): − (− OD600 >0.05)
- growth (OD600) ([1]; Table 4, 20 mg/ml): − (− OD600 >0.05)
- visible growth ([1]; UV-4B 0.04 mg/ml): +
- visible growth ([1]; UV-4B 0.08 mg/ml): +
- visible growth ([1]; UV-4B 0.16 mg/ml): +
- visible growth ([1]; UV-4B 0.31 mg/ml): +
- visible growth ([1]; UV-4B 0.63 mg/ml): +
- visible growth ([1]; UV-4B 2.50 mg/ml): −
- visible growth ([1]; UV-4B 5 mg/ml): −
- visible growth ([1]; UV-4B 10 mg/ml): −
- visible growth ([1]; UV-4B 20 mg/ml): −
- MIC ([2]; Table 3): 2.5 mg/mL
- MIC ([2]; Table 4): 0.625 mg/mL
- growth (OD600) ([2]; Table 4, 0.02 mg/ml): + (+ OD600 <0.05)
- growth (OD600) ([2]; Table 4, 0.04 mg/ml): + (+ OD600 <0.05)
- growth (OD600) ([2]; Table 4, 0.08 mg/ml): + (+ OD600 <0.05)
- growth (OD600) ([2]; Table 4, 0.16 mg/ml): + (+ OD600 <0.05)
- growth (OD600) ([2]; Table 4, 0.31 mg/ml): + (+ OD600 <0.05)
- growth (OD600) ([2]; Table 4, 0.63 mg/ml): − (− OD600 >0.05)
- growth (OD600) ([2]; Table 4, 2.50 mg/ml): − (− OD600 >0.05)
- growth (OD600) ([2]; Table 4, 5 mg/ml): − (− OD600 >0.05)
- growth (OD600) ([2]; Table 4, 10 mg/ml): − (− OD600 >0.05)
- growth (OD600) ([2]; Table 4, 20 mg/ml): − (− OD600 >0.05)
- visible growth ([2]; UV-4B 0.02 mg/ml): +
- visible growth ([2]; UV-4B 0.04 mg/ml): +
- visible growth ([2]; UV-4B 0.08 mg/ml): +
- visible growth ([2]; UV-4B 0.16 mg/ml): +
- visible growth ([2]; UV-4B 0.31 mg/ml): +
- visible growth ([2]; UV-4B 0.63 mg/ml): +
- visible growth ([2]; UV-4B 2.50 mg/ml): −
- visible growth ([2]; UV-4B 5 mg/ml): −
- visible growth ([2]; UV-4B 10 mg/ml): −
- MIC ([3]; Table 3): 5 mg/mL
- visible growth ([3]; UV-4B 0.04 mg/ml): +
- visible growth ([3]; UV-4B 0.08 mg/ml): +
- visible growth ([3]; UV-4B 0.16 mg/ml): +
- visible growth ([3]; UV-4B 0.31 mg/ml): +
- visible growth ([3]; UV-4B 0.63 mg/ml): +
- visible growth ([3]; UV-4B 2.50 mg/ml): +
- visible growth ([3]; UV-4B 5 mg/ml): −
- visible growth ([3]; UV-4B 10 mg/ml): −
- visible growth ([3]; UV-4B 20 mg/ml): −
- MIC ([4]; Table 3): 5 mg/mL
- visible growth ([4]; UV-4B 0.04 mg/ml): +
- visible growth ([4]; UV-4B 0.08 mg/ml): +
- visible growth ([4]; UV-4B 0.16 mg/ml): +
- visible growth ([4]; UV-4B 0.31 mg/ml): +
- visible growth ([4]; UV-4B 0.63 mg/ml): +
- visible growth ([4]; UV-4B 2.50 mg/ml): +
- visible growth ([4]; UV-4B 5 mg/ml): −
- visible growth ([4]; UV-4B 10 mg/ml): −
- visible growth ([4]; UV-4B 20 mg/ml): −
- MIC ([5]; Table 3, two independent tests): 2.5 mg/mL
- MIC ([5]; Table 4): 1.25 mg/mL
- growth (OD600) ([5]; Table 4, 0.02 mg/ml): + (+ OD600 <0.05)
- growth (OD600) ([5]; Table 4, 0.04 mg/ml): + (+ OD600 <0.05)
- growth (OD600) ([5]; Table 4, 0.08 mg/ml): + (+ OD600 <0.05)
- growth (OD600) ([5]; Table 4, 0.16 mg/ml): + (+ OD600 <0.05)
- growth (OD600) ([5]; Table 4, 0.31 mg/ml): + (+ OD600 <0.05)
- growth (OD600) ([5]; Table 4, 0.63 mg/ml): + (+ OD600 <0.05)
- growth (OD600) ([5]; Table 4, 2.50 mg/ml): − (− OD600 >0.05)
- growth (OD600) ([5]; Table 4, 5 mg/ml): − (− OD600 >0.05)
- growth (OD600) ([5]; Table 4, 10 mg/ml): − (− OD600 >0.05)
- growth (OD600) ([5]; Table 4, 20 mg/ml): − (− OD600 >0.05)
- visible growth ([5]; UV-4B 0.04 mg/ml): +
- visible growth ([5]; UV-4B 0.08 mg/ml): +
- visible growth ([5]; UV-4B 0.16 mg/ml): +
- visible growth ([5]; UV-4B 0.31 mg/ml): +
- visible growth ([5]; UV-4B 0.63 mg/ml): +
- visible growth ([5]; UV-4B 2.50 mg/ml): −
- visible growth ([5]; UV-4B 5 mg/ml): −
- visible growth ([5]; UV-4B 10 mg/ml): −
- visible growth ([5]; UV-4B 20 mg/ml): −
- MIC ([6]; Table 3): 2.5 mg/mL
- MIC ([6]; Table 4): 0.625 mg/mL
- growth (OD600) ([6]; Table 4, 0.02 mg/ml): + (+ OD600 <0.05)
- growth (OD600) ([6]; Table 4, 0.04 mg/ml): + (+ OD600 <0.05)
- growth (OD600) ([6]; Table 4, 0.08 mg/ml): + (+ OD600 <0.05)
- growth (OD600) ([6]; Table 4, 0.16 mg/ml): + (+ OD600 <0.05)
- growth (OD600) ([6]; Table 4, 0.31 mg/ml): + (+ OD600 <0.05)
- growth (OD600) ([6]; Table 4, 0.63 mg/ml): − (− OD600 >0.05)
- growth (OD600) ([6]; Table 4, 2.50 mg/ml): − (− OD600 >0.05)
- growth (OD600) ([6]; Table 4, 5 mg/ml): − (− OD600 >0.05)
- growth (OD600) ([6]; Table 4, 10 mg/ml): − (− OD600 >0.05)
- growth (OD600) ([6]; Table 4, 20 mg/ml): − (− OD600 >0.05)
- visible growth ([6]; UV-4B 0.02 mg/ml): +
- visible growth ([6]; UV-4B 0.04 mg/ml): +
- visible growth ([6]; UV-4B 0.08 mg/ml): +
- visible growth ([6]; UV-4B 0.16 mg/ml): +
- visible growth ([6]; UV-4B 0.31 mg/ml): +
- visible growth ([6]; UV-4B 0.63 mg/ml): +
- visible growth ([6]; UV-4B 2.50 mg/ml): −
- visible growth ([6]; UV-4B 5 mg/ml): −
- visible growth ([6]; UV-4B 10 mg/ml): −
- MBC ([7]; UV-4B): >10 mg/mL
- growth after re-inoculation on BHI agar ([7]; UV-4B 2.50 mg/ml): +
- growth after re-inoculation on BHI agar ([7]; UV-4B 5.00 mg/ml): +
- growth after re-inoculation on BHI agar ([7]; UV-4B 10 mg/ml): +
- MBC ([8]; UV-4B): >20 mg/mL
- growth after re-inoculation on BHI agar ([8]; UV-4B 2.50 mg/ml): +
- growth after re-inoculation on BHI agar ([8]; UV-4B 5.00 mg/ml): +
- growth after re-inoculation on BHI agar ([8]; UV-4B 10 mg/ml): +
- growth after re-inoculation on BHI agar ([8]; UV-4B 20 mg/ml): +
- growth after re-inoculation on BHI agar ([9]; UV-4B 2.50 mg/ml): +
- growth after re-inoculation on BHI agar ([9]; UV-4B 5.00 mg/ml): +
- growth after re-inoculation on BHI agar ([9]; UV-4B 10 mg/ml): +
- growth after re-inoculation on BHI agar ([9]; UV-4B 20 mg/ml): −
- MBC ([10]; UV-4B): 2.5 mg/mL
- growth after re-inoculation on BHI agar ([10]; UV-4B 2.50 mg/ml): −
- growth after re-inoculation on BHI agar ([10]; UV-4B 5.00 mg/ml): −
- growth after re-inoculation on BHI agar ([10]; UV-4B 10 mg/ml): −
- MBC ([11]; UV-4B): >20 mg/mL
- growth after re-inoculation on BHI agar ([11]; UV-4B 2.50 mg/ml): +
- growth after re-inoculation on BHI agar ([11]; UV-4B 5.00 mg/ml): +
- growth after re-inoculation on BHI agar ([11]; UV-4B 10 mg/ml): +
- growth after re-inoculation on BHI agar ([11]; UV-4B 20 mg/ml): +
- MBC [12]: 20 mg/mL
- concentration allowing inhibition of alpha toxin production [13]: higher than 2.5 mg/ml
